Like-named read-outs stand apart in the source and are kept apart here.
Tests used:
TRAF6/Uev1A/Ubc13 = molecular target: T1, TRAF6/Uev1A/Ubc13 (Homo sapiens, UniProt Q9Y4K3); assay: TRAF6/Uev1A/Ubc13 plate-based ubiquitin ligase assay; assay type: biochemical
T1 sequence (Q9Y4K3 1-522): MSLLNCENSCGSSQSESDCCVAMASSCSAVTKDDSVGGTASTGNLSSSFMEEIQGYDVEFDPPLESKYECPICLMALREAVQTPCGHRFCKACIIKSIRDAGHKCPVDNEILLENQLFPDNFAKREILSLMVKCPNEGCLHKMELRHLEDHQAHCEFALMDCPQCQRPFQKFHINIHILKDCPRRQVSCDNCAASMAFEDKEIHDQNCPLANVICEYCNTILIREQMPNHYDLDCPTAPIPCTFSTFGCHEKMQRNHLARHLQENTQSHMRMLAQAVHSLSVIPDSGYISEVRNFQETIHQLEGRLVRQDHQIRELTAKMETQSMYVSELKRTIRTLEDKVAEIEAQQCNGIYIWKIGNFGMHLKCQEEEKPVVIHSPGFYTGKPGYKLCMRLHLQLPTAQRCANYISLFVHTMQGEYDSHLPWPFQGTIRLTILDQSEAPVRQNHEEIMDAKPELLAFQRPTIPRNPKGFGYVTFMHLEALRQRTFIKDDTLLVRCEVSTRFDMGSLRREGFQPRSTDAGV
In short: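 Ligase activity was read as luminescence from anti-Flag/HRP detection of Flag-ubiquitin bound to casein-blocked Ni-plates alongside His-ubiquitin after a 1 h room-temperature reaction. Buffer: 62.5 mM Tris pH 7.5, 6.25 mM MgCl2, 1.0 mM DTT, 2 μM ATP; E1, Uev1a/Ubc13 and TRAF6 added last to start. IC50s derived across compound concentrations.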

A549 cells = assay: Cell proliferation PAD assay, A549; assay type: cell-based; settings: Homo sapiens, 48 hours
In short: (§1)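 Each line, seeded at 2,000 cells/well, received duplicate 6.3-fold compound dilutions (10 mM stock, diluted 500× into medium) one day after plating. Exposure lasted 48 h; fixed cells were DAPI-stained and photographed, and images were analysed for live, apoptotic and dead cell numbers.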

H1299 cells = assay: Cell proliferation PAD assay, H1299; assay type: cell-based; settings: Homo sapiens, 48 hours
In short: as §1

OVCAR8 cells = assay: Cell proliferation PAD assay, OVCAR8; assay type: cell-based; settings: Homo sapiens, OVCAR-8, 6pt, 48 hours
Procedure: (§2) Cell lines used are available from American Type Culture Collection (ATCC), for example, cell cultures containing A549 (ATCC# CCL-185), HeLa (ATCC# CCL-2), HCT116 ATTC# CCL-247), and H1299 (ATCC# CRL-5803) cells were maintained in T175 flasks following the ATCC recommended media and handling procedures. […] A 20,000 cells/ml solution was made for plating. Cells were plated in black Packard 96 well plates by placing 100 μl per well (2,000 cells per well). […] The definitions of the cell types used are as follows: A549 is lung carcinoma; HI 299 is non-small cell lung carcinoma; HI 155 is non-small cell lung carcinoma; AsPC-1 is pancreatic adenocarcinoma; Caov-3 is ovarian adenocarcinoma; COLO 205 is colorectal adenocarcinoma; DLD-1 colorectal adenocarcinoma; HCT116 is colorectal carcinoma; DU 145 is prostate carcinoma; ES-2 is ovarian clear cell carcinoma; H460 is large cell lung carcinoma; HELA is cervical adenocarcinoma; MIA PaCa-2 is pancreatice carcinoma; OVCAR-3 is ovarian adenocarcinoma; OVCAR8 is ovarian carcinoma; PC3 is prostate adenocarcinoma; SK-OV-3 is ovarian adenocarcinoma; SU86.86 is pancreatic carcinoma; TOV-21G is avarian clear cell carcinoma; U2OS is bone osteosarcoma; is ASPC-I is pancreatic adenocarcinoma; BXPC-3 is pabcreatic adenocarcinoma; HL60 is promyeloblast promyelocytic leukemia; K562 is bone marrow chronic myelogenous leukemia; L1210 is mouse lymphocytic leukemia; MOLT3 is T lymphoblast acute lymphoblastic leukemia; MOLT4 is T lymphoblast acute lymphoblastic leukemia; SW620 is colorectal adenocarcinoma; THP-1 is monocyte acute monocytic leukemia; U937 is histiocytic lymphoma; and UACC-257 is melanoma.
(§3) Compounds and additional media were added 24 hours after cell plating. […] All compound testing was done in duplicate using 6.3 fold dilutions starting with 10 mM. […] Taxol and at least one additional control were run on all plates. Three microliters of the compound master plate were added to deep well blocks containing 750 μl of RPMI media. One hundred microliters were transferred from the compound/media deep well blocks to the plated cells resulting in a 500 fold dilution of the compounds. Cells were grown at 37° C., 5% CO2 for 48 hours.
(§4) Cells to be analyzed by photography were fixed and stained. One hundred microliters of media were removed and 100 μl of 9.3% formamide was added to each well. Plates were left on the benchtop for 45 minutes. A staining solution containing 1.55 μl of 1 mg/ml DAPI added to 18.75 ml PBS was warmed for 15 minutes at 37° C. The cells were aspirated prior to washing with 100 μl of PBS. Seventy microliters of PBS were aspirated and 170 μl of the DAPI solution were added to each well of fixed cells. Plates were left at room temperature for one hour then aspirated and washed twice with 100 μl of PBS. The stained cells were left at 4° C. for a minimum of 16 hours before photographic analysis with Array Scan II (Cellomics). Analysis of the photographic images to determine numbers of live cells (proliferation), apoptotic cells and dead cells, were according to the methods described in U.S. Utility patent application Ser. No. 10/652,440, which incorporated herein in its entirety.

UACC-257 cells = assay: Cell proliferation PAD assay, UACC-257; assay type: cell-based; settings: Homo sapiens, UACC257 cells, 6pt, 48 hours
Procedure: as §2, §3, §4

APC11/APC2 = APC11/APC2 (Homo sapiens, UniProt Q9NYG5+Q9UJX6); assay: APC-11/APC-2 ligase assay (APC auto ubiquitination); assay type: biochemical; settings: APC assay
In short: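 His-tagged APC was captured on nickel plates with human E1 (5 ng/well), UbcH5c (20 ng/well), APC (100 ng/well) and Flag-ubiquitin (100 ng/well) in a Tris pH 7.6 reaction buffer containing 2.5 mM ATP, for 1 hour at room temperature. Read-out was anti-Flag/HRP chemiluminescence. IC50 was set against a DMSO control, typically from 6 or 8 concentrations.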

ROC1/CUL1 = molecular target: T2, ROC1/CUL1 (Homo sapiens, UniProt P62877+Q13616); assay: ROC1/CUL1 ubiquitin ligase assay (SCF assay); assay type: biochemical
T2 construct: made in house
Procedure: Inhibition of ubiquitin ligase activity of E1+E2+E3 was measured using the protocol as described in WO 01/75145 with E3 as the ROC1/CUL1, ROC1/CUL2, or ROC2/CUL5 complex.
The wells of nickel-substrate 96-well plates (Pierce Chemical) are blocked with 100 μl of 1 casein/phosphate buffered saline (PBS) for 1 hour at room temperature, then washed with 200 μl of PBST (0.1% Tween-20 in PBS) 3 times. To each well is added the following Flag-ubiquitin (see above) reaction solution: 62.5 mM Tris pH 7.5, 6.25 mm MgCl2, 0.75 mM DTT, 2.5 mM ATP, 2.5 mM NaF1, 2.5 nM Okadaic acid, 100 ng Flag-ubiquitin (made as described above).
The buffer solution is brought to a final volume of 80 μl with Milipore-filtered water, followed by the addition of 10 μl DMSO.
To the above solution is then added 10 μl of ubiquitination enzymes in 20 mM Tris buffer, pH 7.5, and 5% glycerol. E2-Ubch5c and E3-His ROC1/Cul1, ROC1/CUL2, and ROC2/CUL5 are made as described in WO 01/75145. E1 is obtained commercially (Affiniti Research Products, Exeter, U. K.). The following amounts of each enzyme are used for these assays: 5 ng/well of E1; […] E2; and 100 ng/well His-E3. Varying amounts of compounds according to the invention are added and the reaction allowed to proceed at room temperature for 1 hour.
Following the ubiquitination reaction, the wells are washed with 200 μl of PBST 3 times. For measurement of the enzyme-bound ubiquitin, 100 gel of Mouse anti-Flag (1:10,000) and anti-Mouse Ig-HRP (1:15, 000) in PBST are added to each well and allowed to incubate at room temperature for 1 hour. The wells are then washed with 200 μl of PBST 3 times, followed by the addition of 100 μl of luminol substrate (1/5 dilution). Luminescence for each well is then measured using a fluorimeter.
Table 2 below illustrates the inhibitory activity of the compounds of the invention determined by the TRAF6/Uev1A/Ubc13 assay as well as in the ICAM, APC and the ROC1/CUL1 Ubiquitin Ligase Assay (SCF Assay). The IC50 values were determined using a various concentrations of the compounds.

[1] = system: ICAM-1 expression in A549 cells; assay: ICAM assay (IL-1 induced ICAM-1/CD54 expression in A549 cells); assay type: cell-based, human; settings: Homo sapiens, A549, ICAM assay
In short: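 Luminescent immunostaining (anti-CD54, then anti-mouse IgG, 1 h) quantifies ICAM-1 on A549 cells induced 4 h at 37° C by IL-1 (4 μl of 25 ng/ml added). Compound is added 1 h before the cytokine to cells plated overnight at 10,000 per well.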

[2] = NCI-H1299, 3pt, read-out: H1299 3pt
[3] = NCI-H1299, 6pt, read-out: H1299 6pt

T2 sequence (P62877 whole entry): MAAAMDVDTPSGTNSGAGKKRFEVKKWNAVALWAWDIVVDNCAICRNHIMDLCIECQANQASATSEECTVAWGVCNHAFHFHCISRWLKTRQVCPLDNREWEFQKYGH
T2 sequence (Q13616 whole entry): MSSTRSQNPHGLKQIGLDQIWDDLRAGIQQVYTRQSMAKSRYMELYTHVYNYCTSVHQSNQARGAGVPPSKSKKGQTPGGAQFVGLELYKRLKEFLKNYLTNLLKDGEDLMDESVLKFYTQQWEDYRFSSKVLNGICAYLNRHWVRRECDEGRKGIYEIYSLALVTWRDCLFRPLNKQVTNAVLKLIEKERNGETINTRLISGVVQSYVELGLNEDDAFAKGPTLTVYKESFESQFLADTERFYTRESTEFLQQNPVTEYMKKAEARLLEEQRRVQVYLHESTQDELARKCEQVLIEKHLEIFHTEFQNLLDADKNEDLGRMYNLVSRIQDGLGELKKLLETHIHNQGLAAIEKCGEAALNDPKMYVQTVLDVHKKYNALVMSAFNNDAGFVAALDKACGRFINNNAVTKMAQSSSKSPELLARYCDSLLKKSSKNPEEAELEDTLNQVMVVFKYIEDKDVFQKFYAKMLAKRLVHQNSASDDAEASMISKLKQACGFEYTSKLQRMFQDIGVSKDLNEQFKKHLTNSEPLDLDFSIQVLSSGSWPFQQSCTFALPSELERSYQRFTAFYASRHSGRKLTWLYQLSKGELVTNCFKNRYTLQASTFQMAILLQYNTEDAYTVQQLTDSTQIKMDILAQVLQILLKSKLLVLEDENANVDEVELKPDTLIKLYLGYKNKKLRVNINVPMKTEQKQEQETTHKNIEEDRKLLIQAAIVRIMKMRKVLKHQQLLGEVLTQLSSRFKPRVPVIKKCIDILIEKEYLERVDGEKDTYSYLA
Sequence of APC11/APC2 (Q9NYG5 whole entry): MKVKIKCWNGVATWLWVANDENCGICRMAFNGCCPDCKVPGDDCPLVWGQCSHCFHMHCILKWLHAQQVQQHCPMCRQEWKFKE
Sequence of APC11/APC2 (Q9UJX6 whole entry): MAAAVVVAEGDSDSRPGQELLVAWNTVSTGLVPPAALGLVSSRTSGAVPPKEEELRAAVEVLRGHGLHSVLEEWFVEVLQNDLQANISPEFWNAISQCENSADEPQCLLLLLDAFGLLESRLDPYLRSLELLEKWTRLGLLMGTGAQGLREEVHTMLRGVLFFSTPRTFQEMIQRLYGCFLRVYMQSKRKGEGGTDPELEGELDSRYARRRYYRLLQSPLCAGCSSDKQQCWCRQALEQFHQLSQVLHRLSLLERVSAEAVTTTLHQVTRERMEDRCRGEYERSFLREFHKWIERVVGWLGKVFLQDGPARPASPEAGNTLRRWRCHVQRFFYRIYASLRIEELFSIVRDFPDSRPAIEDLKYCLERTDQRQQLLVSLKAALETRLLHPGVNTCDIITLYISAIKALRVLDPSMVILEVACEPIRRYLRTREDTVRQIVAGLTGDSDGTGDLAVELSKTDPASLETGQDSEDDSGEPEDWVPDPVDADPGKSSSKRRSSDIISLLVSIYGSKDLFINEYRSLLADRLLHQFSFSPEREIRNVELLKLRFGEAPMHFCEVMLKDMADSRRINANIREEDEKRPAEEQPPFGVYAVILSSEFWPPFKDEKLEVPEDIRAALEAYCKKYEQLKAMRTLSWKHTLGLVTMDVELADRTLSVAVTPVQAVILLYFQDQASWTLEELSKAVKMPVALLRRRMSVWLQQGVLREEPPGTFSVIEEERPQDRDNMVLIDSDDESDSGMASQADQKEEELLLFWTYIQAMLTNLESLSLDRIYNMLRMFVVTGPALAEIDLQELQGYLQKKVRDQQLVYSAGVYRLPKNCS

Compound	IC50 (TRAF6/Uev1A/Ubc13) [µM]	IC50 (A549 cells; 3pt, read-out: A549 3pt) [µM]	IC50 (A549 cells; 6pt, read-out: A549 6pt) [µM]	IC50 (H1299 cells; [2]) [µM]	IC50 (H1299 cells; [3]) [µM]	IC50 (OVCAR8 cells) [µM]	IC50 (UACC-257 cells) [µM]	IC50 (APC11/APC2) [µM]	IC50 (ROC1/CUL1) [µM]	IC50 [1] [µM]
COC(=O)c1ccc(Nc2ccc(S(=O)(=O)Nc3ccc(C(=O)OC)cc3)c3nonc23)cc1 [compound 9, Methyl 4-{[(7-{[4-(methoxycarbonyl)phenyl]amino}-2,1,3-benzoxadiazol-4-yl)sulfonyl]amino}benzoate]	≥ 20	≥ 20	1 to 20	≥ 20	≥ 20	≥ 20	≥ 20	–	–	–
COc1ccccc1NS(=O)(=O)c1cccc2nonc12 [compound 11, N-(2-methoxyphenyl)-2,1,3-benzoxadiazole-4-sulfonamide]	1 to 20	≥ 20	–	≥ 20	–	≥ 20	≥ 20	–	–	–
O=S(=O)(Nc1ccncc1)c1ccc2nonc2c1 [compound 26, N-pyridin-4-yl-2,1,3-benzoxadiazole-5-sulfonamide]	–	≥ 20	–	≥ 20	–	≥ 20	≥ 20	–	–	–
O=[N+]([O-])c1cc(Cl)c(Oc2ccc(S(=O)(=O)Nc3cccc4nonc34)cc2Cl)c(Cl)c1 [compound 79, N-2,1,3-benzoxadiazol-4-yl-3-chloro-4-(2,6-dichloro-4-nitrophenoxy)benzenesulfonamide]	1 to 20	1 to 20	1 to 20	1 to 20	1 to 20	1 to 20	≥ 20	–	–	–
O=C(CN1CCN(c2ccc([N+](=O)[O-])c3nonc23)CC1)N1CCOCC1 [compound 107, 4-[4-(2-morpholin-4-yl-2-oxoethyl)piperazin-1-yl]-7-nitro-2,1,3-benzoxadiazole]	≥ 20	≥ 20	≥ 20	≥ 20	≥ 20	≥ 20	≥ 20	–	–	–
CC1CC(C)CN(c2ccc(S(=O)(=O)N3CC(C)CC(C)C3)c3nonc23)C1 (stereo not drawn) [compound 193, 4-(3,5-dimethylpiperidin-1-yl)-7-[(3,5-dimethylpiperidin-1-yl)sulfonyl]-2,1,3-benzoxadiazole]	1 to 20	–	–	–	–	–	–	1 to 20	1 to 20	–
Cc1ccc(N2CCN(S(=O)(=O)c3c(N4CCN(c5cccc(C)n5)CC4)ccc4nonc34)CC2)nc1 [compound 203, 5-[4-(6-methylpyridin-2-yl)piperazin-1-yl]-4-{[4-(5-methylpyridin-2-yl)piperazin-1-yl]sulfonyl}-2,1,3-benzoxadiazole]	1 to 20	–	–	–	–	–	–	–	≥ 20	≥ 20
COC(=O)c1ccc(NS(=O)(=O)c2c(Sc3cccc4cccnc34)ccc3nonc23)cc1 [compound 215, methyl 4-({[5-(quinolin-8-ylthio)-2,1,3-benzoxadiazol-4-yl]sulfonyl}amino)benzoate]	1 to 20	–	–	–	–	–	–	–	≥ 20	≥ 20
O=[N+]([O-])c1ccc(Sc2ccc3ccccc3n2)c2nonc12 [compound 238, 2-[(7-nitro-2,1,3-benzoxadiazol-4-yl)thio]quinoline]	1 to 20	–	–	–	–	–	–	–	≥ 20	≥ 20
CN1CCN(S(=O)(=O)c2ccc(Sc3ccc4ccccc4n3)c3nonc23)CC1 [compound 268, 2-({7-[(4-methylpiperazin-1-yl)sulfonyl]-2,1,3-benzoxadiazol-4-yl}thio)quinoline]	≥ 20	–	–	–	–	–	–	–	≥ 20	≥ 20
COc1ccc(Cl)cc1NS(=O)(=O)c1ccc(Cl)c2nonc12 [compound 269, 7-chloro-N-(5-chloro-2-methoxyphenyl)-2,1,3-benzoxadiazole-4-sulfonamide]	1 to 20	–	–	–	–	–	–	–	≥ 20	≥ 20
O=C(Nc1cccc2nonc12)C1CN(c2ncccc2Cl)C1 [compound 486, N-(2,1,3-benzoxadiazol-4-yl)-1-(3-chloropyridin-2-yl) azetidine-3-carboxamide]	1 to 20	–	–	–	–	–	–	1 to 20	1 to 20	–

— US20050282818A1, “Ubiquitin ligase inhibitors” (Rigel Pharmaceuticals, Inc., priority 2004, published 2005)
